ChEMBL document CHEMBL3525988, “Delayed elimination of SN-38 in cancer patients with severe renal failure” (Drug Metab Dispos, 2011)

Experiments:
[1] = Terminal elimination rate constant in cancer patient with severe renal failure administered as infusion after 0.25 to 1.5 hrs by RP-HPLC analysis; assay type: ADME, organism-based; set-up: dosed compound name Irinotecan; conditions: human, in vivo, iv; read-out: k_elim (converted)
[2] = Terminal elimination rate constant in cancer patient normal renal function administered as infusion after 0.25 to 1.5 hrs by RP-HPLC analysis; assay type: ADME, organism-based; set-up: dosed compound name Irinotecan; conditions: human, in vivo, iv; read-out: k_elim (converted)

SMILES | k el [1] | k el [2]
CCc1c2c(nc3ccc(O[C@@H]4O[C@H](C(=O)O)[C@@H](O)[C@H](O)[C@H]4O)cc13)-c1cc3c(c(=O)n1C2)COC(=O)[C@]3(O)CC | 8.61e-06 s⁻¹ | 1.7e-05 s⁻¹
CCc1c2c(nc3ccc(O)cc13)-c1cc3c(c(=O)n1C2)COC(=O)[C@]3(O)CC [7-ETHYL-10-HYDROXYCAMPTOTHECIN] | 2.34e-06 s⁻¹ | 2.26e-05 s⁻¹
CCc1c2c(nc3ccc(OC(=O)N4CCC(N5CCCCC5)CC4)cc13)-c1cc3c(c(=O)n1C2)COC(=O)[C@]3(O)CC [IRINOTECAN] | 2.81e-05 s⁻¹ | 3.33e-05 s⁻¹
